Laboratory results as given in ChEMBL document CHEMBL5500412, “Discovery of Highly Selective, Potent, Covalent, and Orally Bioavailable Factor XIIa Inhibitors for the Treatment of Thrombo-Inflammation” (J Med Chem, 2024).
Activity calls are given as the source filed them. No cut-off for these calls is given here.

Assays:
Plasma [1] = test: Anticoagulant activity in human plasma assessed as prolongation of activated partial thromboplastin time at 300 uM incubated for 2 mins by aPTT reagent based assay relative to control; type: functional
RAW264.7 [2] = test: Antiinflammatory activity in mouse RAW264.7 cells assessed as inhibition of LPS-induced IL-6 expression at 10 uM preincubated for 12 hrs followed by LPS stimulation and measured after 12 hrs by real time quantitative RT-PCR assay; type: functional, cell-based; conditions: time 24.0 hrs
Trypsin = Trypsin (Homo sapiens, UniProt P07477+P07478+P35030); test: Inhibition of trypsin (unknown origin) using Bz-lle-Glu(gamma-OR)-Gly-Arg-pNA.HCl as chromogenic substrate incubated for 20 mins followed by substrate addition by spectrophotometric analysis; type: protein assay
[3] = biological target: T1, Coagulation factor XII (Homo sapiens) (UniProt P00748); test: Covalent inhibition of FXIIa (unknown origin) at 20 to 40 nM measured after 10 mins; conditions: dose 20-40 nM
T1 sequence (whole entry): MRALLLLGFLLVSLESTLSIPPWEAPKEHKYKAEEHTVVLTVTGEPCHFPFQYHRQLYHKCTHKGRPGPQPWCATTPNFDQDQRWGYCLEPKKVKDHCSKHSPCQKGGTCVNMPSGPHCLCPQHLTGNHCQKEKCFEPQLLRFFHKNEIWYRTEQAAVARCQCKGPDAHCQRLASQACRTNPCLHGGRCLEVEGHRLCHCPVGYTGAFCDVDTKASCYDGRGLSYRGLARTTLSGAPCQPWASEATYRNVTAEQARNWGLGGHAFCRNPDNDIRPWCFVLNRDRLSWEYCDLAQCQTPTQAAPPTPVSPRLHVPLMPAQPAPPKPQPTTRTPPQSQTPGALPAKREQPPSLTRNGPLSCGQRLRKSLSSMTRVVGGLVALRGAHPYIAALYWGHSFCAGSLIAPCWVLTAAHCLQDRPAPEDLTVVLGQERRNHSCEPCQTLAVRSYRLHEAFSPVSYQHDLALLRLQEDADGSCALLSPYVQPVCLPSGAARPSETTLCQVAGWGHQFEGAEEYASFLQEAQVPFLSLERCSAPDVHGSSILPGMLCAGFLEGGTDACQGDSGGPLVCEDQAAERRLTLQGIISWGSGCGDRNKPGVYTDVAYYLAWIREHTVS

[4] = Selectivity index, ratio of IC50 for trypsin (unknown origin) to IC50 for FXIIa (unknown origin)
[5] = Selectivity index, ratio of IC50 for plasmin (unknown origin) to IC50 for FXIIa (unknown origin)
[6] = Selectivity index, ratio of IC50 for PKal (unknown origin) to IC50 for FXIIa (unknown origin)
Prothrombin = Prothrombin (Homo sapiens, UniProt P00734); test: Inhibition of thrombin (unknown origin) using H-D-Phe-Pip-Arg-pNA-2HCl as substrate incubated for 20 mins followed by substrate addition by spectrophotometric analysis
[7] = Selectivity index, ratio of IC50 for tPA (unknown origin) to IC50 for FXIIa (unknown origin)
Plasma [8] = test: Anticoagulant activity in human plasma assessed as prolongation of activated partial thromboplastin time incubated for 2 mins by aPTT reagent based assay; type: functional
[9] = Selectivity index, ratio of IC50 for FXIa (unknown origin) to IC50 for FXIIa (unknown origin)
Chymotrypsin = Chymotrypsin (Homo sapiens, UniProt Q99895+P17538+P40313+Q6GPI1); test: Inhibition of Chymotrypsin (unknown origin) using N-Suc-Ala-Ala-Pro-Phe-pNA as chromogenic substrate incubated for 20 mins followed by substrate addition by spectrophotometric analysis; type: protein assay
[10] = biological target: T1, Coagulation factor XII (Homo sapiens); test: Inhibition of FXIIa (unknown origin) using H-D-Pro-Phe-Arg-pNA as substrate preincubated for 20 mins followed by 100 fold dilution upto 120 mins then substrate addition for 60 mins by jump dilution assay; conditions: time <= 200.0 min
Plasma [11] = test: Anticoagulant activity in human plasma assessed as prolongation of […] time at 300 uM incubated for 2 mins by PT reagent based assay relative to control; type: functional
[12] = Selectivity index, ratio of IC50 for FXa (unknown origin) to IC50 for FXIIa (unknown origin)
[13] = biological target: T1, Coagulation factor XII (Homo sapiens); test: Binding affinity to FXIIa (unknown origin) assessed as Kinact/Ki using H-D-Pro-Phe-Arg-pNA.2HCl as substrate by spectrophotometric analysis
Plasma kallikrein = Plasma kallikrein (Homo sapiens, UniProt P03952); test: Inhibition of PKal (unknown origin) using H-D-Pro-Phe-Arg-pNA-2HCl as substrate incubated for 20 mins followed by substrate addition by spectrophotometric analysis
Sequence of Plasma kallikrein (P03952 20-390 limits assumed): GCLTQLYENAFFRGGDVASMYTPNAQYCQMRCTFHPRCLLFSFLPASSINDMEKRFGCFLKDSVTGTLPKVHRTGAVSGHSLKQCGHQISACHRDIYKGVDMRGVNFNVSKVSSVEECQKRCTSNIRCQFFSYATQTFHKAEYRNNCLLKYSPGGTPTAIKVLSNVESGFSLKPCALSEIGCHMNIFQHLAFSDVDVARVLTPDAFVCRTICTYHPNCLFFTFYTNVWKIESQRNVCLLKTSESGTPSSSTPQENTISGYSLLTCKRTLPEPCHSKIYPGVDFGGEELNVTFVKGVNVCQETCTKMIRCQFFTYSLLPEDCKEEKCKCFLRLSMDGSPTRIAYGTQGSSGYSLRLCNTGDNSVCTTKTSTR
Sequence of Plasma kallikrein (P03952 391-638 limits assumed): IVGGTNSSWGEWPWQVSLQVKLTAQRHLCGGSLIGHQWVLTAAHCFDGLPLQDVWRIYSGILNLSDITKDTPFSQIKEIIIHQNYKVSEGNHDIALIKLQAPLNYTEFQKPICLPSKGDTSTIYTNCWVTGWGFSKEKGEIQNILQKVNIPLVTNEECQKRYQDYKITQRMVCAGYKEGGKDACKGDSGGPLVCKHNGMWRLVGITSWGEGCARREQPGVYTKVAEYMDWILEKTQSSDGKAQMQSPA

[14] = Selectivity index, ratio of IC50 for chymotrypsin (unknown origin) to IC50 for FXIIa (unknown origin)
Coagulation factor XII [15] = biological target: T2, Coagulation factor XII (Homo sapiens, UniProt P00748); test: Binding affinity to FXIIa (unknown origin) assessed as inhibition constant using H-D-Pro-Phe-Arg-pNA.2HCl as substrate by spectrophotometric analysis
T2 sequence (P00748 whole entry): T1 sequence (whole entry)

RAW264.7 [16] = test: Antiinflammatory activity in mouse RAW264.7 cells assessed as inhibition of LPS-induced IL-1 beta expression at 10 uM preincubated for 12 hrs followed by LPS stimulation and measured after 12 hrs by real time quantitative RT-PCR assay; type: functional, cell-based; conditions: time 24.0 hrs
[17] = biological target: T1, Coagulation factor XII (Homo sapiens); test: Binding affinity to FXIIa (unknown origin) assessed as inactivation rate using H-D-Pro-Phe-Arg-pNA.2HCl as substrate by spectrophotometric analysis
[18] = Selectivity index, ratio of IC50 for thrombin (unknown origin) to IC50 for FXIIa (unknown origin)
Coagulation factor XII [19] = biological target: T2, Coagulation factor XII; test: Inhibition of FXIIa (unknown origin) using H-D-Pro-Phe-Arg-pNA as substrate incubated for 20 mins followed by substrate addition by spectrophotometric analysis
[20] = biological target: Tissue-type plasminogen activator (Homo sapiens, UniProt P00750); test: Inhibition of tPA (unknown origin) using H-D-lle-Pro-Arg-pNA-2HCl as chromogenic substrate incubated for 20 mins followed by substrate addition by spectrophotometric analysis
Sequence of Tissue-type plasminogen activator (P00750 whole entry): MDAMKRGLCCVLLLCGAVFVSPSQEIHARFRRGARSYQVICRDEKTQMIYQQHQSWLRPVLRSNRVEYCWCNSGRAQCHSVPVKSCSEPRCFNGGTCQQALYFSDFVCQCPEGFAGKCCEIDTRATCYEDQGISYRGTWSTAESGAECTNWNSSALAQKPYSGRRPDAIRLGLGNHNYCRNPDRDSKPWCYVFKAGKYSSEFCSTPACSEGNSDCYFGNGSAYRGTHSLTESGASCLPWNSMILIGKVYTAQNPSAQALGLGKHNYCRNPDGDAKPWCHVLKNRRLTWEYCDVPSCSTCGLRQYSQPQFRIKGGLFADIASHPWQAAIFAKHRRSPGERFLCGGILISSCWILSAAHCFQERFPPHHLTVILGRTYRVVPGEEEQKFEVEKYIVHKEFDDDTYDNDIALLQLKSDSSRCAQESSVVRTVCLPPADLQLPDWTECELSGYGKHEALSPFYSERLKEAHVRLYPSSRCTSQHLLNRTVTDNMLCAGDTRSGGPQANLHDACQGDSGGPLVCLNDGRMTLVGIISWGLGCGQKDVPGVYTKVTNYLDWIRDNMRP

Coagulation factor XI = Coagulation factor XI (Homo sapiens, UniProt P03951); test: Inhibition of FXIa (unknown origin) using p-Glu-Pro-Arg-pNA.HCl as chromogenic substrate incubated for 20 mins followed by substrate addition by spectrophotometric analysis
Sequence of Coagulation factor XI (P03951 19-387 limits assumed): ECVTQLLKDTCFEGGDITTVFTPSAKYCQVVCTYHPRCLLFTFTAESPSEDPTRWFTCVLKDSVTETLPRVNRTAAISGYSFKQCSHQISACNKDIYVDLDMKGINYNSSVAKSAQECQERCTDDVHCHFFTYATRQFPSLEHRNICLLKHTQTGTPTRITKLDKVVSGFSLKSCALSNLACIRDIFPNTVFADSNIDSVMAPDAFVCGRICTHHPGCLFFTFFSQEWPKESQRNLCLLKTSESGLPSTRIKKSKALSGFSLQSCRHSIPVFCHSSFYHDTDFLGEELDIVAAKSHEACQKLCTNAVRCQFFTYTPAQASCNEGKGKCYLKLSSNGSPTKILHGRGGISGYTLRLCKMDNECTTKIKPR
Sequence of Coagulation factor XI (P03951 388-625 limits assumed): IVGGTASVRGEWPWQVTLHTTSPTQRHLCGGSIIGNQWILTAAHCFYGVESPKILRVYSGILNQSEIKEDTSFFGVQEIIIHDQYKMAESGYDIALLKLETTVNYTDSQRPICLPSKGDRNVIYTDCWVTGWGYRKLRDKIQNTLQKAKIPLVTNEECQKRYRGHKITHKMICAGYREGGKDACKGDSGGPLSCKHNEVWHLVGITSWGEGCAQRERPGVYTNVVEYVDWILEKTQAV

Plasma [21] = test: Anticoagulant activity in non-activated human plasma at 10 to 25 uM measured after 30 mins; type: functional, cell-free; conditions: dose 10-25 µM

In the case of `Nc1nc(-c2ccccn2)nn1C(=O)c1cccc2ccccc12`, the Activity (Plasma [1]) is reported as 303%, the Activity (RAW264.7 [2]) is reported as “Active” and the IC50 (Trypsin) is reported as > 5000 nM. The inhibition [3] was “Active”, the Ratio IC50 [4] was > 140 and the Ratio IC50 [5] was > 140. For the same compound, the Ratio IC50 [6] was > 710, the IC50 (Prothrombin) was 360 nM and the Ratio IC50 [7] was > 140. The EC1.5 (Plasma [8]) was 145 µM, the Ratio IC50 [9] was > 710 and the IC50 (Chymotrypsin) was > 5000 nM. For the same compound, the inhibition [10] was “inactive”, the Activity (Plasma [11]) was 17% and the Ratio IC50 [12] was > 140. For the same compound, the K [13] was 5.96 10^5/M/min, the IC50 (Plasma kallikrein) was > 25000 nM and the Ratio IC50 [14] was > 140. For the same compound, the Ki (Coagulation factor XII [15]) was 43.5 nM, the Activity (RAW264.7 [16]) was “Active” and the Kinact [17] was 0.026 min⁻¹. For the same compound, the Ratio IC50 [18] was 10, the IC50 (Coagulation factor XII [19]) was 35 nM and the IC50 [20] was > 5000 nM. For the same compound, the IC50 (Coagulation factor XI) was > 25000 nM and the Activity (Plasma [21]) was “inactive”.
